SMILES strings stand for the structures.

In this assay the target is farnesyl protein transferase (FPTase) (Homo sapiens, UniProt P49354+P49356). Description: In vitro assay for inhibition of farnesyl protein transferase. Format: biochemical. Particulars: test dose of 10^−7 M. On the procedure:
An in vitro assay for inhibition of farnesyl transferase was performed essentially as described in WO 98/40383, pages 33-34.
For orientation: inhibition means the percentage by which the read-out fell short of the control. `N#Cc1ccc(Cn2cnnc2CN(Cc2ccc(F)cc2F)C(=O)c2ccc(-c3ccccc3C(F)(F)F)o2)cc1` [compound 281] yielded an inhibition at 0.1 µM not below 10%.

In turn, `N#Cc1ccc(Cn2cnnc2CN(Cc2ccc(F)cc2F)C(=O)c2ccc(OC(F)(F)F)c(Cl)c2)cc1` [compound 293] displayed an inhibition at 0.1 µM not below 10%.

On to `COc1ccc2oc(C(=O)N(CCc3ccc(Br)cc3)Cc3nncn3Cc3ccc(C#N)cc3)cc2c1` [compound 237], for which the inhibition at 0.1 µM is not below 10%.

`N#Cc1ccc(Cn2cnnc2CN(Cc2ccc(F)cc2F)C(=O)c2cc3ccccc3o2)cc1` [compound 299]: the inhibition at 0.1 µM is not below 10%.

As to `N#Cc1ccc(Cn2cnnc2CN(C(=O)c2ccc3ccccc3n2)c2ccc(Oc3ccccc3)cc2)cc1` [compound 256], the inhibition at 0.1 µM was not below 10%.

Regarding `N#Cc1ccc(Cn2cnnc2CN(Cc2ccc(F)cc2F)C(=O)c2ccc3ccccc3n2)cc1` [compound 300], the inhibition at 0.1 µM was not below 10%.

`N#Cc1ccc(Cn2cnnc2CN(Cc2c(F)ccc(F)c2F)c2ccc(Oc3ccccc3)cc2)cc1` [compound 238] came in with an inhibition at 0.1 µM not below 10%.

`N#Cc1ccc(Cn2cnnc2CN(Cc2ccc(F)cc2F)C(=O)c2ccc(-c3ccc(F)cc3)o2)cc1` [compound 274] showed an inhibition at 0.1 µM not below 10%.

`COC(=O)c1cc(C)nc(N(Cc2nnc[nH]2)Cc2ccc(F)cc2F)[n+]1Cc1ccc(C#N)cc1` [compound 255] returned an inhibition at 0.1 µM not below 10%.

The compound `N#Cc1ccc(Cn2cnnc2CN(Cc2ccc(F)cc2F)C(=O)c2cc3ccccc3s2)cc1` [compound 270] gave an inhibition at 0.1 µM not below 10%.

For `Cc1ccccc1-c1cccc(C(=O)N(Cc2ccc(F)cc2F)Cc2nncn2Cc2ccc(C#N)cc2)c1` [compound 242], the inhibition at 0.1 µM is not below 10%.

For the compound `N#Cc1ccc(Cn2cnnc2CN(Cc2ccc(F)cc2F)C(=O)/C=C/c2cccc(C(F)(F)F)c2)cc1` [compound 231], the inhibition at 0.1 µM is not below 10%.

With `Cc1ccc(C(=O)N(Cc2ccc(F)cc2F)Cc2nncn2Cc2ccc(C#N)cc2)cc1C` [compound 262], the inhibition at 0.1 µM was not below 10%.

Turning to `Cc1cccc(/C=C/C(=O)N(Cc2ccc(F)cc2F)Cc2nncn2Cc2ccc(C#N)cc2)c1` [compound 254], the inhibition at 0.1 µM is not below 10%.

`N#Cc1ccc(Cn2cnnc2CN(Cc2ccc(F)cc2F)C(=O)c2cccc(-c3cc(Cl)cc(Cl)c3)c2)cc1` [compound 283] came in with an inhibition at 0.1 µM not below 10%.

Take `N#Cc1ccc(Cn2cnnc2CN(Cc2ccc(F)cc2F)C(=O)c2cccc(Br)c2)cc1` [compound 243]: the inhibition at 0.1 µM was not below 10%.

Compound `Cc1nnc(CN(Cc2ccc(F)cc2F)C(=O)c2ccc3ccccc3n2)n1Cc1ccc(C#N)cc1` [compound 311] registered an inhibition at 0.1 µM not below 10%.

As to `N#Cc1ccc(Cn2cnnc2CN(Cc2ccc(F)cc2F)C(=O)c2cccc(-c3ccsc3)c2)cc1` [compound 239], the inhibition at 0.1 µM is not below 10%.

For the compound `N#Cc1ccc(Cn2cnnc2CN(Cc2cccc(F)c2F)C(=O)c2ccc3ccccc3n2)cc1` [compound 307], the inhibition at 0.1 µM was not below 10%.

`N#Cc1ccc(Cn2cnnc2CN(CCc2ccc(Br)cc2)C(=O)c2cc3ccccc3o2)cc1` [compound 251] yielded an inhibition at 0.1 µM not below 10%.

Take `N#Cc1ccc(Cn2cnnc2CN(Cc2ccc(F)cc2F)C(=O)c2cc(Br)cc3c2OCC3)cc1` [compound 291]: the inhibition at 0.1 µM is not below 10%.

The compound `Cc1ccc(Br)cc1C(=O)N(Cc1ccc(F)cc1F)Cc1nncn1Cc1ccc(C#N)cc1` [compound 314] displayed an inhibition at 0.1 µM not below 10%.

Take `N#Cc1ccc(Cn2cnnc2CN(Cc2ccc(Br)cc2)C(=O)c2ccc3ccccc3n2)cc1` [compound 304]: the inhibition at 0.1 µM is not below 10%.

For `N#Cc1ccc(Cn2cnnc2CN(Cc2ccc(F)cc2F)C(=O)c2cccc(Cl)n2)cc1` [compound 279], the inhibition at 0.1 µM is not below 10%.

In the case of `N#Cc1ccc(Cn2cnnc2CN(CCc2ccc(Br)cc2)C(=O)c2ccc(Br)o2)cc1` [compound 219], the inhibition at 0.1 µM was not below 10%.

In the case of `Cc1cc(C(=O)N(Cc2ccc(F)cc2F)Cc2nncn2Cc2ccc(C#N)cc2)ccc1Br` [compound 277], the inhibition at 0.1 µM is not below 10%.

In turn, `N#Cc1ccc(Cn2cnnc2CN(Cc2ccc(F)cc2F)C(=O)c2cccc(-c3cccc(C(F)(F)F)c3)c2)cc1` [compound 227] showed an inhibition at 0.1 µM not below 10%.

With `Cc1ccc(C(=O)N(Cc2ccc(F)cc2F)Cc2nncn2Cc2ccc(C#N)cc2)cc1-c1cc(Cl)cc(Cl)c1` [compound 308], the inhibition at 0.1 µM is not below 10%.

In turn, `N#Cc1ccc(Cn2cnnc2CN(Cc2ccc(F)cc2F)C(=O)c2cccc(Cl)c2)cc1` [compound 246] came in with an inhibition at 0.1 µM not below 10%.

As for `Cc1ccc(C(=O)N(Cc2ccc(F)cc2F)Cc2nncn2Cc2ccc(C#N)cc2)cc1-c1ccsc1` [compound 288], the inhibition at 0.1 µM was not below 10%.

Take `O=C(c1ccc2ccccc2n1)N(Cc1ccc(F)cc1F)Cc1nncn1Cc1ccc([N+](=O)[O-])cc1` [compound 273]: the inhibition at 0.1 µM is not below 10%.

The compound `N#Cc1ccc(Cn2cnnc2CN(CCC(c2ccccc2)c2ccccc2)C(=O)C2CCN(S(=O)(=O)c3ccc(F)cc3)CC2)cc1` [compound 261] yielded an inhibition at 0.1 µM not below 10%.

For `N#Cc1ccc(Cn2cnnc2CN(Cc2ccc(F)cc2F)C(=O)c2ccc(-c3ccc(F)c(Cl)c3)o2)cc1` [compound 272], the inhibition at 0.1 µM was not below 10%.

`N#Cc1ccc(Cn2cnnc2CN(C(=O)c2ccc3ccccc3n2)c2ccc(N3CCOCC3)cc2)cc1` [compound 248] displayed an inhibition at 0.1 µM not below 10%.

As for `N#Cc1ccc(Cn2cnnc2CN(Cc2ccccc2Cl)C(=O)c2ccc3ccccc3n2)cc1` [compound 294], the inhibition at 0.1 µM is not below 10%.

`N#Cc1ccc(Cn2cnnc2CN(CCSCc2c(F)cccc2Cl)C(=O)c2ccc3ccccc3n2)cc1` [compound 271] had an inhibition at 0.1 µM not below 10%.

The compound `N#Cc1ccc(Cn2cnnc2CN(Cc2c(F)cccc2F)C(=O)c2ccc3ccccc3n2)cc1` [compound 303] had an inhibition at 0.1 µM not below 10%.

Turning to `N#Cc1ccc(Cn2cnnc2CN(CCc2ccc(Br)cc2)C(=O)c2cc3ccccc3s2)cc1` [compound 223], the inhibition at 0.1 µM was not below 10%.

The compound `N#Cc1ccc(Cn2cnnc2CN(Cc2ccc(F)cc2F)C(=O)c2cccc(-c3ccccc3C(F)(F)F)c2)cc1` [compound 259] displayed an inhibition at 0.1 µM not below 10%.

Regarding `N#Cc1ccc(Cn2cnnc2CN(Cc2ccc(F)cc2F)C(=O)/C=C/c2cc(F)cc(C(F)(F)F)c2)cc1` [compound 245], the inhibition at 0.1 µM is not below 10%.

For the compound `C/C(=C\c1ccccc1)C(=O)N(Cc1ccc(F)cc1F)Cc1nncn1Cc1ccc(C#N)cc1` [compound 282], the inhibition at 0.1 µM is not below 10%.

As to `N#Cc1ccc(Cn2cnnc2CN(Cc2ccc(F)cc2F)C(=O)/C=C/c2ccc(Cl)c(Cl)c2)cc1` [compound 250], the inhibition at 0.1 µM is not below 10%.

Consider `Cc1ccc(C(=O)N(Cc2ccc(F)cc2F)Cc2nncn2Cc2ccc(C#N)cc2)cc1Br` [compound 309], for which the inhibition at 0.1 µM is not below 10%.

Regarding `Cc1ccc(C)c(/C=C/C(=O)N(Cc2ccc(F)cc2F)Cc2nncn2Cc2ccc(C#N)cc2)c1` [compound 225], the inhibition at 0.1 µM is not below 10%.

Turning to `COc1ccc2oc(C(=O)N(Cc3ccc(F)cc3F)Cc3nncn3Cc3ccc(C#N)cc3)cc2c1` [compound 268], the inhibition at 0.1 µM was not below 10%.

`N#Cc1ccc(Cn2cnnc2CN(Cc2ccc(F)cc2F)C(=O)c2cc3ccccc3oc2=O)cc1` [compound 252]: the inhibition at 0.1 µM was not below 10%.

These data come from patent US7511061B2, “Triazoles as farnesyl transferase inhibitors” (Janssen Pharmaceutica N.V., priority 1999, dated 2009).
